From ChEMBL document CHEMBL5441456, “ASAP - SARS-CoV-2 nsp3 macrodomain dose response” (2024)
“And” between values parts separate entries of the source, which are not always exact repeats. Identical values can stand only once.

Biological target: Replicase polyprotein 1ab (Severe acute respiratory syndrome coronavirus 2, UniProt P0DTD1)
Assay: Functional biochemical assay to identify treatments for viral infectious disease that targets SARS-COV-2 nsp3 macrodomain, whereby the mechanism of action displaces an ADP-Ribose modified peptide from the binding site. Utilizing a time-resolved fluorescence method to measure binding by reading the emitted fluorescence intensity in two wavelengths.

| SMILES | IC50 |
| --- | --- |
| CCNC(=O)c1cc2c(N[C@@H](c3ccc4c(c3)S(=O)(=O)CCC4)C(C)C)ncnc2[nH]1 | 0.056 µM and 0.1 µM and 0.02 µM and 0.034 µM and 0.019 µM and 0.033 µM and 0.053 µM and 0.032 µM and 0.042 µM |
| CNC(=O)c1cc2c(N[C@@H](c3ccc4c(c3)S(=O)(=O)CCC4)C(C)C)ncnc2[nH]1 | 52 nM (2×) and 78 nM and 24 nM and 48 nM and 38 nM and 35 nM and 60 nM |
| CC(C)[C@@H](Nc1ncnc2[nH]c(C(=O)NC3(CF)COC3)cc12)c1ccc2c(c1)OCCO2 | 1.25 µM and 1.74 µM |
| Cc1ncn(C)c1NC(=O)c1cc2c(N[C@@H](c3ccc4c(c3)OCCO4)C(C)C)ncnc2[nH]1 | 10.7 µM and 19.7 µM |
| CC(C)[C@@H](Nc1ccnc2nn[nH]c12)c1ccc2c(c1)S(=O)(=O)CCC2 | > 99.5 µM |
| CC(C)[C@@H](Nc1ccnc2nccn12)c1ccc2c(c1)S(=O)(=O)CCC2 | > 99.5 µM |
| CC(C)[C@@H](Nc1ncnc2[nH]c(C(=O)NCc3c[nH]cn3)cc12)c1ccc2c(c1)OCCO2 | 1.15 µM and 2.57 µM |
| CC(C)[C@@H](Nc1ncnc2[nH]c([C@@]3(O)CCCNC3)cc12)c1ccc2c(c1)OCCO2 | 17.8 µM and 13.9 µM |
| CC(C)[C@@H](Nc1ncnc2[nH]c(C(=O)NCC(C)(C)C#N)cc12)c1ccc2c(c1)OCCO2 | 2.1 µM and 4.22 µM |
| CC(C)[C@@H](Nc1ncnc2[nH]c(C(=O)N[C@H]3[C@@H]4CN(C)C[C@@H]43)cc12)c1ccc2c(c1)OCCO2 | 1.1 µM and 2.06 µM |
| CO[C@@H]1CCC[C@H]1NC(=O)c1cc2c(N[C@@H](c3ccc4c(c3)OCCO4)C(C)C)ncnc2[nH]1 | 1.01 µM and 1.34 µM |
| CC(C)[C@@H](Nc1ncnc2[nH]c(C(=O)NCCc3cnco3)cc12)c1ccc2c(c1)OCCO2 | 0.954 µM and 1.91 µM |
| CC(C)[C@@H](Nc1ncnc2[nH]c(C(=O)Nc3cnccc3O)cc12)c1ccc2c(c1)OCCO2 | 9.98 µM and 17.9 µM |
| CC(C)[C@@H](Nc1ncnc2[nH]c([C@@]3(O)CCOC3)cc12)c1ccc2c(c1)OCCO2 | 9.98 µM and 23 µM |
| CC(C)[C@@H](Nc1n[nH]c2ncccc12)c1ccc2c(c1)S(=O)(=O)CCC2 | 43.5 µM |
| CC(C)[C@@H](Nc1ncnc2[nH]c(C(=O)NC[C@@H]3CCOC3)cc12)c1ccc2c(c1)OCCO2 | 0.58 µM and 1.15 µM |
| CC(C)[C@@H](Nc1ncnc2[nH]c(C(=O)NCCC(F)F)cc12)c1ccc2c(c1)OCCO2 | 0.837 µM and 1.34 µM |

| SMILES | IC50 |
| --- | --- |
| CC(C)[C@@H](Nc1ncnc2[nH]c(C(=O)NCC3(C#N)CC3)cc12)c1ccc2c(c1)OCCO2 | 1.09 µM and 2.64 µM |
| O=C1NCCc2ccc(CNc3ncnc4[nH]ccc34)cc21 | > 99.5 µM |
| CC(C)[C@@H](Nc1ncnc2[nH]c(C(=O)NCc3cnco3)cc12)c1ccc2c(c1)OCCO2 | 0.639 µM and 1.76 µM |
| CC(C)[C@@H](Nc1ncnc2[nH]c(C(=O)NCC3=NCCCN3)cc12)c1ccc2c(c1)OCCO2 | 3.68 µM and 7.82 µM |
| CC(C)[C@@H](Nc1ncnc2[nH]c(C(=O)Nc3cnoc3)cc12)c1ccc2c(c1)OCCO2 | 1.97 µM and 5.69 µM |
| CC(C)[C@@H](Nc1ncnc2[nH]c(C(=O)NCc3ncccn3)cc12)c1ccc2c(c1)OCCO2 | 2.94 µM and 5.87 µM |
| COc1nc(NC(=O)c2cc3c(N[C@@H](c4ccc5c(c4)OCCO5)C(C)C)ncnc3[nH]2)n[nH]1 | 47.2 µM |
| CC(=O)N1CC(NC(=O)c2cc3c(N[C@@H](c4ccc5c(c4)OCCO5)C(C)C)ncnc3[nH]2)C1 | 0.793 µM and 2 µM |
| CC(C)[C@@H](Nc1ncnc2[nH]c(C(=O)NCC3(F)CC3)cc12)c1ccc2c(c1)OCCO2 | 1.36 µM and 2.02 µM |
| CC(C)[C@@H](Nc1cnc2[nH]cnc2c1)c1ccc2c(c1)S(=O)(=O)CCC2 | > 99.5 µM |
| CC(C)[C@@H](Nc1ncnc2[nH]c(C(=O)Nc3ncco3)cc12)c1ccc2c(c1)OCCO2 | 7.24 µM and 5.89 µM |
| CC(C)[C@@H](Nc1ncnc2[nH]c(C(=O)NCC3(CO)CCC3)cc12)c1ccc2c(c1)OCCO2 | 1.29 µM and 2.35 µM |
| CC(C)[C@@H](Nc1ncnc2[nH]c(C(=O)NCCc3cn[nH]c3)cc12)c1ccc2c(c1)OCCO2 | 1.36 µM and 3.4 µM |
| CC(C)[C@@H](Nc1ncnc2[nH]c(C(=O)NC3CN(C)C3)cc12)c1ccc2c(c1)OCCO2 | 1.44 µM and 3.27 µM |
| COCCC1(NC(=O)c2cc3c(N[C@@H](c4ccc5c(c4)OCCO5)C(C)C)ncnc3[nH]2)CC1 | 2.84 µM and 4.42 µM |
| CC(C)[C@@H](Nc1ncnc2[nH]c(C(=O)NC34CC(C#N)(C3)C4)cc12)c1ccc2c(c1)OCCO2 | 1.36 µM and 1.93 µM |
| COc1cn[nH]c1NC(=O)c1cc2c(N[C@@H](c3ccc4c(c3)OCCO4)C(C)C)ncnc2[nH]1 | 72.6 µM |
